What all share (experiment): inhibition of tumour cell growth, NCI panel, 48 h
The test system of assay [1] is RXF 393 renal.
For assay [2], the system named is MDA-MB-435.
For assay [3], the system named is UACC-62 melanoma.
Assay [4] deals with M14 melanoma.
Assay [5] relates to KM12 colon.
The test system of assay [6] is COLO 205 colon.
Assay [7] concerns OVCAR-5 ovarian.
The subject of assay [8] is CAKI-1 renal.
Assay [9] has as its system UO-31 renal.
Assay [10] concerns NCI-H460 lung.

“And” between values parts separate entries of the source, which are not always exact repeats. Equal values may be shown once.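 Interpolation was linear, between the two tested concentrations surrounding the appropriate level; five concentrations were tested over 48 hours in 96-well plates. GI50: concentration for 50% inhibition of growth. Definition used: TGI = concentration required for complete inhibition of growth.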

`C=C1C(=O)O[C@@H]2C[C@@]3(C)CCC[C@H](C)C3=C[C@H]12`: the TGI in [1] turned out to be 18.8 µM; in assay [2], 17.2 µM; in assay [3], 19.8 µM; in [4], 12.6 µM; in [5], 24.8 µM; in [6], 3.39 µM. Moreover, the TGI in [7] came out at 31.4 µM; in assay [8] it was 17.3 µM; in [9] it was 17.1 µM; in assay [10], 31.7 µM.

With `O=C(CN1CCN(c2ncnc3ccccc23)CC1)Nc1ccc(Cl)cc1C(=O)c1ccccc1Cl`, the GI50 was 0.61 µM in assay [1]; 0.589 µM in assay [2]; 0.579 µM in [3]; 0.919 µM in assay [4]; 0.349 µM in assay [6]; 2.92 µM in assay [7]. Also, the GI50 is 1.46 µM in [8], 1.87 µM in assay [9] and 0.598 µM in assay [10]. Also, the TGI in assay [1] stood at 1.31 µM; in assay [2] it was 2 µM; in [3], 1.5 µM; in [4], 2.88 µM; in [5], 5.08 µM; in [6], 1.33 µM. Moreover, the TGI in [7] is more than 42.2 µM; in assay [8], 7.01 µM; in [9] it was 12.6 µM; in assay [10] it was 11.6 µM.

Take `O=C1NN(c2ccc(C(=O)O)cc2)C(=O)/C1=C\c1ccc([N+](=O)[O-])o1`: the GI50 in [1] is 40.7 µM; in assay [2], 32.1 µM; in assay [3], 62 µM; in [4] it was 28.6 µM; in [5], more than 100 µM; in assay [6] it was 20.9 µM. For the same compound, the GI50 in assay [7] is more than 100 µM; in [8], 16.1 µM; in assay [9], 59.1 µM; in assay [10], more than 100 µM. Further, the TGI was more than 100 µM in assay [1]; more than 100 µM in assay [2]; more than 100 µM in [3]; 88 µM in assay [4]; more than 100 µM in assay [5]; 38.8 µM in [6]. Further, the TGI was more than 100 µM in assay [7], 31.1 µM in assay [8], more than 100 µM in assay [9] and more than 100 µM in [10].

As for `Cc1nn(-c2nc3ccccc3s2)c(C)c1Oc1ccccc1O`, the GI50 in assay [1] was 3.09 µM; in [2], 9.36 µM; in [3], 2.91 µM; in [4] it was 11.8 µM; in assay [5], 6.99 µM; in assay [6], 15.7 µM. The GI50 in [7] was 12.5 µM; in assay [8], 10.9 µM; in [9], 4.44 µM; in assay [10], 0.654 µM. Also, the TGI in [1] was determined as 8.38 µM; in assay [2], 21.3 µM; in assay [3] it was 18.1 µM; in [4] it was 24.8 µM; in assay [5], 20.1 µM; in assay [6], 31.1 µM. The TGI in [7] stood at 25.7 µM; in assay [8], 22.9 µM; in [9], 18.6 µM; in assay [10], 16.3 µM.

`CCC(C)(C)C(=O)O[C@H]1C[C@@H](C)C=C2C=C[C@H](C)[C@H](CC[C@@H]3C[C@@H](O)CC(=O)O3)[C@H]21`: the GI50 in [1] was 2.06 µM; in [2] it was 8.03 µM; in assay [3], 0.578 µM; in assay [4], 2.89 µM; in assay [5] it was 11.2 µM; in [6], 4.14 µM. Further, the GI50 in assay [7] was 9.19 µM; in assay [8], 0.941 µM; in assay [9], 2.85 µM; in assay [10] it was 3.91 µM. Further, the TGI in [1] is 8.5 µM and 2.48 µM; in [2], 21 µM; in assay [4], 16.7 µM and 8.09 µM; in [5], 24.1 µM and > 30 µM; in assay [6] it was 14.7 µM and 23.6 µM; in assay [7], 22.9 µM. Also, the TGI is 3.73 µM and 8.56 µM in assay [8]; 14.7 µM and 10.1 µM in [9]; 14.1 µM and > 30 µM in [10].

Turning to `Oc1ccc2cc(Br)ccc2c1-c1c(O)ccc2cc(Br)ccc12`, the GI50 in assay [1] was 2.79 µM; in assay [2], 3.04 µM; in assay [3], 2.2 µM; in assay [4] it was 3.91 µM; in assay [5] it was 2.93 µM; in assay [6], 1.77 µM. The GI50 in assay [7] is 4.23 µM; in [8], 2.27 µM; in assay [9] it was 1.96 µM; in [10], 3.76 µM. Further, the TGI in assay [1] turned out to be 5.93 µM; in assay [2], 11.2 µM; in assay [3], 8.5 µM; in assay [4] it was 14 µM; in assay [5], 10.4 µM; in assay [6] it was 3.38 µM. In addition, the TGI in assay [7] worked out at 15.6 µM; in [8], 8.77 µM; in [9], 9.92 µM; in [10] it was 15 µM.

Turning to `COc1ccc(CCN2C(=O)C=CC2=O)cc1OC`, the TGI was determined as 19.9 µM in [1]; 34 µM in assay [2]; 31 µM in assay [3]; 24.1 µM in assay [4]; 40.8 µM in [5]; 3.54 µM in assay [6]. The TGI amounted to 35.6 µM in assay [7], 27.4 µM in assay [8], 3.05 µM in assay [9] and 46.8 µM in [10].

In the case of `CC1=NN(c2ccccc2)C(=O)C1N=Nc1ccc([As](=O)(O)O)c(O)c1` (stereo unspecified), the TGI in assay [1], in assay [2], in assay [3], in assay [4], in assay [5] and in [6] was more than 100 µM throughout. The TGI in assay [7], in [8], in assay [9] and in assay [10] was more than 100 µM each time.

With `COc1ccc(N(CC(=O)NCCC[Te]c2ccccc2)C(=O)c2ccccc2)cc1`, the GI50 in assay [1] is 12 µM; in [2], 8.06 µM; in assay [3], 2.53 µM; in assay [4], 4.21 µM; in assay [5] it was 3.13 µM; in [6], 2.58 µM. Also, the GI50 in assay [7] is 3.8 µM; in assay [8], 2.98 µM; in [9], 2.77 µM; in assay [10], 0.543 µM. Besides, the TGI in assay [1] stood at 30.3 µM; in assay [2] it was 30.2 µM; in assay [3] it was 7.5 µM; in assay [4], 15.4 µM; in assay [5], 11.9 µM; in assay [6] it was 6.03 µM. In addition, the TGI in [7] is 11.4 µM; in assay [8], 14.9 µM; in [9], 10.9 µM; in assay [10], 2.37 µM.

`Oc1ccc(-c2nnc3sc(-c4ccc(F)c(Oc5ccccc5)c4)nn23)cc1`: the GI50 in assay [1] was 7.47 µM; in assay [2], 68.6 µM; in [3], 19.8 µM; in assay [4], 43.6 µM; in [5] it was 45.7 µM; in assay [6] it was 96 µM. Further, the GI50 in [7] is more than 100 µM; in [8], 20.8 µM; in [9], 5.62 µM; in assay [10], 38.5 µM. Further, the TGI in [1] was 25.3 µM; in [2], more than 100 µM; in assay [3] it was 66.8 µM; in assay [4] it was more than 100 µM; in [5], more than 100 µM; in [6] it was more than 100 µM. Further, the TGI in assay [7] was more than 100 µM; in assay [8], 80.6 µM; in assay [9], more than 100 µM; in assay [10] it was more than 100 µM.

For the compound `O=C1CC(c2ccc(N3CCOCC3)cc2)(c2ccsc2)NC(=O)C1Sc1ccccc1Cl` (stereo unspecified), the GI50 in assay [1] was 5.65 µM; in assay [2] it was 88.6 µM; in assay [3], 53.1 µM; in assay [4], 60.7 µM; in assay [5], 43.7 µM; in assay [6] it was more than 100 µM. In addition, the GI50 in assay [7] was more than 100 µM; in assay [8], 28.4 µM; in [9] it was 34.4 µM; in assay [10], 13.5 µM. Also, the TGI in [1], in assay [2], in assay [3], in assay [4], in assay [5] and in [6] was more than 100 µM each time. Besides, the TGI in [7], in assay [8], in [9] and in assay [10] was more than 100 µM in each case.

In the case of `O=c1c2cccc(Cl)c2sc2c(NCCCNCCO)nc3ccccc3c12`, the GI50 in assay [1] is 1.69 µM; in assay [2] it was 1.82 µM; in [3] it was 1.65 µM; in assay [4], 1.79 µM; in assay [5] it was 1.87 µM; in [6] it was 1.9 µM. Further, the GI50 in assay [7] is 2.8 µM; in assay [8], 3.79 µM; in assay [9] it was 1.02 µM; in assay [10], 1.01 µM. Further, the TGI in assay [1] came to 4 µM; in [2], 3.55 µM; in assay [3], 3.15 µM; in [4] it was 3.54 µM; in [5], 3.73 µM; in assay [6], 4.39 µM. The TGI is 10.1 µM in [7], 17.6 µM in [8], 3.95 µM in assay [9] and 2.32 µM in [10].

For `COc1ccc2nc(-c3cc(-c4cc(OC)c(OC)c(OC)c4)n[nH]3)[nH]c2c1`, the GI50 in [1] was 2.49 µM; in [2], 1.49 µM; in [3] it was 1.12 µM; in [4] it was 1.66 µM; in assay [5] it was 1.7 µM; in [6] it was 1.61 µM. For the same compound, the GI50 in [7] is 3.03 µM; in [8] it was 1.79 µM; in assay [9], 1.57 µM; in [10], 2.64 µM. Further, the TGI in assay [1] was 12.3 µM; in [2] it was 3.11 µM; in [3], 2.52 µM; in assay [4], 4.31 µM; in [5], 3.69 µM; in [6], 3.24 µM. For the same compound, the TGI was 12.6 µM in assay [7], 5.64 µM in assay [8], 4.11 µM in assay [9] and 8.08 µM in assay [10].

With `COC(=O)NC1C(C)OC(OC2C/C=C(/C)C3C=CC4C(OC5CC(OC6CC(O)C(OC7CC(O)C(OC)C(C)O7)C(C)O6)C(O)C(C)O5)C(C)CC(C)C4C3(C)/C(O)=C3\C(=O)OC4(CC(C)C(CO)=CC4/C=C\2C)C3=O)CC1(C)[N+](=O)[O-]` (stereo unspecified), the GI50 was 8.97 µM in assay [1]; 9.44 µM in assay [3]; 16.9 µM in assay [4]; 9.15 µM in assay [5]; 9.29 µM in [6]; 13.4 µM in assay [7]. The results for the GI50 in assay [9] and in assay [10] were 14.4 µM and 8.33 µM, respectively. Also, the TGI in assay [1] is 21.4 µM and 30.7 µM; in assay [2], 17 µM; in [3] it was 16.7 µM and 18.4 µM; in assay [4], 17.2 µM and 32.7 µM; in assay [5], 16.6 µM and 25.2 µM; in [6] it was 16.3 µM and 13 µM. Further, the TGI is 30.7 µM and 33.7 µM in assay [7]; 47.3 µM and 41.1 µM in assay [8]; 50 µM and 34.3 µM in assay [9]; 18.4 µM and 30.5 µM in [10].
